Test results published in patent publication US20260138961A1, “MODULATORS OF MITOCHONDRIAL DNA REPLICATION” (Pretzel Therapeutics, Inc., priority 2022, published 2026).

Molecular target: T1, POLγ W748S + E1143G (Homo sapiens, UniProt P54098, E1143G/W748S)
T1 sequence (P54098 1-1239 W748S/E1143G): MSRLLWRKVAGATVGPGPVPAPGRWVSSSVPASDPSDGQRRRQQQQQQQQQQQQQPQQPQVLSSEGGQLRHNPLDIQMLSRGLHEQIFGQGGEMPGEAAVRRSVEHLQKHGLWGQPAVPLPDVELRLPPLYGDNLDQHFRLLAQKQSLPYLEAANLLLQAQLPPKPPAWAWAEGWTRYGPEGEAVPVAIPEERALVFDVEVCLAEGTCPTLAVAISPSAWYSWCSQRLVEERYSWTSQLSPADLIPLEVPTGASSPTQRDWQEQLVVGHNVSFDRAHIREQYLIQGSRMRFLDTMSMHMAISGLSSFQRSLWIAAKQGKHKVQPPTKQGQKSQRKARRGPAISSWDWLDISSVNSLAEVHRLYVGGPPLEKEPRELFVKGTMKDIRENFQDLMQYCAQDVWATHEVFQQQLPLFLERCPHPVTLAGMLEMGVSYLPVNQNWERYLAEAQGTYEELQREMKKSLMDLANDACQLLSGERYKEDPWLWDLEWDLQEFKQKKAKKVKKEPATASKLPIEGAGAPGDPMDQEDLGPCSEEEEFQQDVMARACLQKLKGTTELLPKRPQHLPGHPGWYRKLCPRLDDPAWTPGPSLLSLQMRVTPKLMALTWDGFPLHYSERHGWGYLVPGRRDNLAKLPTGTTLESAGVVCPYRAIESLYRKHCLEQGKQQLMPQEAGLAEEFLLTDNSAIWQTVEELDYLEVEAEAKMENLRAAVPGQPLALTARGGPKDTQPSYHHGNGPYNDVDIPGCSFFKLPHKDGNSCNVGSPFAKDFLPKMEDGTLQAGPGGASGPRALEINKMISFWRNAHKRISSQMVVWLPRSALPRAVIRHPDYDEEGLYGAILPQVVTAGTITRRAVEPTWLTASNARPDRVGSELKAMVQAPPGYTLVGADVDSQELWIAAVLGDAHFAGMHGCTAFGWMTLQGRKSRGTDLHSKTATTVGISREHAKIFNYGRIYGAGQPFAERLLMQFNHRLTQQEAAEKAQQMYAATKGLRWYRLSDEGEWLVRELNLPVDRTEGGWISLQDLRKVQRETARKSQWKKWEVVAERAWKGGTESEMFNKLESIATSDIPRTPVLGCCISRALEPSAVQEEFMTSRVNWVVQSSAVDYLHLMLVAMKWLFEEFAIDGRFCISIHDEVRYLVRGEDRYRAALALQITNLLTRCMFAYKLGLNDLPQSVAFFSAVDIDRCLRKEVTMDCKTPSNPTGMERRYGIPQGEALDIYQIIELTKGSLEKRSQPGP
T1 sequence (Q9UHN1 1-485 partner): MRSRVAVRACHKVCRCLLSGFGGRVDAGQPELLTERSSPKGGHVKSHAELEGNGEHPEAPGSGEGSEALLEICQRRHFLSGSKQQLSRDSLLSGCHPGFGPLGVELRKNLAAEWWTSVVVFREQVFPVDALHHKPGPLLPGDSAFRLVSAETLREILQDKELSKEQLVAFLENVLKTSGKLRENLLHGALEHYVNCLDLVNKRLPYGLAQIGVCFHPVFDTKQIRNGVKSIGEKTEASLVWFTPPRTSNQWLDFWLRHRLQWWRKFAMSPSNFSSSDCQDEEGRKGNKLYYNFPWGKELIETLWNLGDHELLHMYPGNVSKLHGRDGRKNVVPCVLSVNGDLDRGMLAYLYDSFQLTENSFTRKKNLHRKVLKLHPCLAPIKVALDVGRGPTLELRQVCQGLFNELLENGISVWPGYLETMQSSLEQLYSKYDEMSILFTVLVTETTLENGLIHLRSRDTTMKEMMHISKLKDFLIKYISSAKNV
Assay: DNA polymerization assay, W748S + E1143G mutant
Type: biochemical
Conditions: stimulation of polymerase activity, primed M13mp18 ssDNA, 37° C. 2 hours
Procedure: DNA Polymerization Assay to Monitor Effects on Human Wildtype POLγ and Four Disease-Causing Mutant Variants of Human POLγ.
The ability of small molecules to stimulate the polymerase activity of POLγ was analyzed in a quantitative fluorescence SYBR Green I assay with fluorescence intensity (FI) readout.
In the presence of dNTPs, wild type human POLγ and mutant derivatives thereof were incubated with single-stranded, circular M13mp18 ssDNA hybridized to a short DNA oligonucleotide that functions as a primer for initiation of DNA synthesis. POLγ and mutant derivatives thereof will extend the primer and use the M13mp18 molecule as a template to synthesize long stretches of double-stranded DNA. SYBR Green I, which is a double-stranded DNA-binding dye, was used to quantify formation of double-stranded DNA in the reaction. When bound to double-stranded DNA, SYBR Green I fluorescence increases by up to 100-fold.
The assay was performed in the 384-well plate format. Upon addition of compounds, changes in double-stranded DNA synthesis activity can be monitored by following effects on fluorescent intensity.
The reactions also contained the accessory POLγB subunit, and the human mitochondrial single-stranded DNA binding protein (mtSSB).
The DNA template mixture used in the assay contained 0.5 nM primed M13 mp18 ssDNA, 400 nM mtSSB, 0.1 mM Tris-HCl (pH 8.0), 0.1 mM dNTP, 10 mM MgCl2, 0.1 mg/mL BSA, 1 mM TCEP solution, and 0.02% Triton X-100. The DNA template mixture for the wild type protein contained either 100 μM dNTP, 1 μM dNTP, or 0.1 μM dNTP, designated in Table 2 as 100 μM, 1 μM, and 0.1 μM, respectfully.
Microplates with compounds (0.1 μL in each well) to be tested in the assay were prepared from 10 mM compound stocks in 100% DMSO, and equal amounts of DMSO without any compound were added to positive and negative control wells.
The protein mixture was dispensed (5 μL into each well) into compound plates and incubated at 37° C. for 15 minutes. After incubation, 5 μL of the DNA template mixture was dispensed into each well. The plates were then incubated at 37° C. for 2 hours.
During incubation, a combined stop buffer and detection reagent solution was prepared. The buffer contained 25 mM EDTA (pH 8.0), 0.02% Triton X-100, and SYBR Green I [Invitrogen] diluted 10,000× (for fluorescent readout). EDTA will stop the enzymatic reaction by chelating magnesium ions.

Structure (SMILES)	AC50 [µM]
Cc1csc(-c2cccc(NS(=O)(=O)c3cc(C)c(Cl)cc3C)c2)n1 [Example 20, 4-chloro-2,5-dimethyl-N-(3-(4-methylthiazol-2-yl)phenyl)benzenesulfonamide]	2
Cc1cnc(-c2cccc(NS(=O)(=O)c3cc(C)c(Cl)cc3C)c2)s1 [Example 21, 4-chloro-2,5-dimethyl-N-(3-(5-methylthiazol-2-yl)phenyl)benzenesulfonamide]	3
Cc1cc(S(=O)(=O)N(C)c2cccc(-c3nccs3)c2)c(C)cc1Cl [Example 22, 4-chloro-N,2,5-trimethyl-N-(3-(thiazol-2-yl)phenyl)benzenesulfonamide]	> 100
Cc1cc(S(=O)(=O)Nc2cccc(C(=O)N[C@H](C)c3ccccc3)c2)c(C)cc1Cl [Example 48, (R)-3-((4-chloro-2,5-dimethylphenyl)sulfonamido)-N-(1-phenylethyl)benzamide]	9
Cc1cc(S(=O)(=O)Nc2cc(-c3nccs3)ccc2F)c(C)cc1Cl [Example 61, 4-chloro-N-(2-fluoro-5-(thiazol-2-yl)phenyl)-2,5-dimethylbenzenesulfonamide]	0.7
Cc1cc(S(=O)(=O)Nc2cc(F)cc(-c3nccs3)c2)c(C)cc1Cl [Example 62, 4-chloro-N-(3-fluoro-5-(thiazol-2-yl)phenyl)-2,5-dimethylbenzenesulfonamide]	> 100
Cc1cc(S(=O)(=O)Nc2ccc(F)c(-c3nccs3)c2)c(C)cc1Cl [Example 63, 4-chloro-N-(4-fluoro-3-(thiazol-2-yl)phenyl)-2,5-dimethylbenzenesulfonamide]	> 100
Cc1cc(S(=O)(=O)Nc2cccc(-c3cc(C4CC4)[nH]n3)c2)c(C)cc1Cl [Example 64, 4-chloro-N-(3-(5-cyclopropyl-1H-pyrazol-3-yl)phenyl)-2,5-dimethylbenzenesulfonamide]	4
CC[C@@H]1CCCN1C(=O)c1cccc(NS(=O)(=O)c2cc(C)c(Cl)cc2C)c1 [Example 65, (R)-4-chloro-N-(3-(2-ethylpyrrolidine-1-carbonyl)phenyl)-2,5-dimethylbenzenesulfonamide]	7
Cc1cc(-c2cccc(NS(=O)(=O)c3cc(C)c(Cl)cc3C)c2)n[nH]1 [Example 66, 4-chloro-2,5-dimethyl-N-(3-(5-methyl-1H-pyrazol-3-yl)phenyl)benzenesulfonamide]	5

Further lines, results first:

AC50 [µM]	Structure (SMILES)
21	Cc1cc(S(=O)(=O)Nc2cccc(C(=O)N3CCC[C@H]3C(C)C)c2)c(C)cc1Cl [Example 67, (S)-4-chloro-N-(3-(2-isopropylpyrrolidine-1-carbonyl)phenyl)-2,5-dimethylbenzenesulfonamide]
2	Cc1cc(S(=O)(=O)Nc2cccc(-c3cc[nH]n3)c2)c(C)cc1Cl [Example 68, N-(3-(1H-pyrazol-3-yl)phenyl)-4-chloro-2,5-dimethylbenzenesulfonamide]
0.4	Cc1cc(S(=O)(=O)Nc2csc(C(=O)N3CCCC3)n2)c(C)cc1Cl [Example 166, 4-chloro-2,5-dimethyl-N-(2-(pyrrolidine-1-carbonyl)thiazol-4-yl)benzenesulfonamide]
2	Cc1cc(S(=O)(=O)Nc2csc(C3CCOCC3)n2)c(C)cc1Cl [Example 167, 4-chloro-2,5-dimethyl-N-(2-(tetrahydro-2H-pyran-4-yl)thiazol-4-yl)benzenesulfonamide]
> 100	Cc1cc(S(=O)(=O)Nc2cn(Cc3ccccc3)cn2)c(C)cc1Cl [Example 168, N-(1-benzyl-1H-imidazol-4-yl)-4-chloro-2,5-dimethylbenzenesulfonamide]
> 100	Cc1cc(S(=O)(=O)Nc2cn(-c3ccccc3)cn2)c(C)cc1Cl [Example 169, 4-chloro-2,5-dimethyl-N-(1-phenyl-1H-imidazol-4-yl)benzenesulfonamide]
> 10	Cc1cc(S(=O)(=O)Nc2cn(C)c(-c3ccccc3)n2)c(C)cc1Cl [Example 170, 4-chloro-2,5-dimethyl-N-(1-methyl-2-phenyl-1H-imidazol-4-yl)benzenesulfonamide]
> 10	Cc1cc(S(=O)(=O)Nc2cnn(-c3ccccc3)n2)c(C)cc1Cl [Example 171, 4-chloro-2,5-dimethyl-N-(2-phenyl-2H-1,2,3-triazol-4-yl)benzenesulfonamide]
> 100	Cc1cc(S(=O)(=O)Nc2csc(C(=O)N(C)CC(N)=O)n2)c(C)cc1Cl [Example 172, N-(2-amino-2-oxoethyl)-4-((4-chloro-2,5-dimethylphenyl)sulfonamido)-N-methylthiazole-2-carboxamide]
0.4	Cc1cc(S(=O)(=O)Nc2csc(-c3ccccn3)n2)c(C)cc1Cl [Example 173, 4-chloro-2,5-dimethyl-N-(2-(pyridin-2-yl)thiazol-4-yl)benzenesulfonamide]
0.7	Cc1cc(S(=O)(=O)Nc2csc(C(=O)N3CCC[C@H]3C)n2)c(C)cc1Cl [Example 174, (R)-4-chloro-2,5-dimethyl-N-(2-(2-methylpyrrolidine-1-carbonyl)thiazol-4-yl)benzenesulfonamide]
0.3	Cc1cc(S(=O)(=O)Nc2csc(-c3ccncc3)n2)c(C)cc1Cl [Example 176, 4-chloro-2,5-dimethyl-N-(2-(pyridin-4-yl)thiazol-4-yl)benzenesulfonamide]
> 100	Cc1cc(S(=O)(=O)Nc2csc(C(=O)N(CC(N)=O)C3CCCC3)n2)c(C)cc1Cl [Example 177, N-(2-amino-2-oxoethyl)-4-((4-chloro-2,5-dimethylphenyl)sulfonamido)-N-cyclopentylthiazole-2-carboxamide]
1	Cc1cc(S(=O)(=O)Nc2csc(-n3cccn3)n2)c(C)cc1Cl [Example 178, N-(2-(1H-pyrazol-1-yl)thiazol-4-yl)-4-chloro-2,5-dimethylbenzenesulfonamide]
